Measurements reported in patent US9107909B2, “Materials and methods to enhance hematopoietic stem cells engraftment procedures” (priority 2008, dated 2015).

How the values were obtained:
UCB CD34+ cells = assay: Migration of human UCB CD34+ cells to rhSDF-1; format: cell-based; conditions: pulse exposure
Protocol: Freshly isolated UCB CD34^+ cells were pulsed with dmPGE2 or vehicle for 2 hours, washed and resuspended in media with 10% HI-FCS and cultured at 37° C. for 16 hours. After incubation, cells were washed, resuspended in RPMI/0.5% BSA and migration to rhSDF-1 measured by flow cytometry. To block the CXCR4 receptor, replicate cells were incubated with 5 micrograms/ml AMD3100 for 30 minutes prior to the migration assay. Referring now to FIG. 10, the data are the Mean±SEM percentage migration for 3 experiments.

[1] = system: Survivin in CD34+ UCB cells; assay: Intracellular Survivin by FACS, human CD34+ UCB cells; format: cell-based; conditions: 24 hours post-pulse, vs control
Text: All antibodies were purchased from BD Biosciences unless otherwise noted. For detection and sorting of murine KL and SKL cells, streptavidin conjugated with PE-Cy7 (to stain for biotinylated MACS lineage antibodies (Miltenyi Biotech, Auburn, Calif.)), c-kit-APC, Sca-1-PE or APC-Cy7, CD45. 1-PE and CD45.2-FITC were used. UCB CD34^+ cells were detected using anti-human-CD34-APC. For multilineage analysis, APC-Cy7-Mac-1, PE-Cy7-B-220 and APC-CD3 were used. EP receptors were detected with anti EP1, EP2, EP3 and EP4 rabbit IgG (Cayman Chemicals) and secondary staining with FITC-goat-anti-rabbit IgG (Southern Biotech, Birmingham, Ala.). CXCR4 expression was analyzed using streptavidin-PECy7, c-kit-APC, Sca-1-APC-Cy7, and CXCR4-PE. Apoptosis was measured with FITC-Annexin-V. For Survivin and active caspase-3 detection, cells were permeabilized and fixed using the CytoFix/CytoPerm kit (BD) and stained with anti-active-caspase-3-FITC Flow Kit (BD) or Survivin-PE (R&D Systems).
Expression of EP receptors, CXCR4 and Survivin Replicate Lin^neg cell samples from CD45.2 mice were stained for SKL and each of the EP receptors and surface receptor expression on KL and SKL cells determined by FACS. […] Replicate cells were stained for CD34 and each of the EP receptors and surface expression determined by FACS. […]

SKL cells = assay: Transwell migration of murine SKL cells to rmSDF-1α; format: cell-based, mouse; conditions: pulsed 2 hours, cultured 16 hours, migration 4 hours; vs vehicle
Protocol: Freshly isolated Lineage^neg mouse bone marrow cells were pulsed with dmPGE2 or vehicle for 2 hours, washed and resuspended in media with 10% HI-FCS and cultured at 37° C. for 16 hours. After incubation, cells were washed, resuspended in RPMI/0.5% BSA and allowed to migrate in transwells to rmSDF-1α for 4 hours. Total cell migration was measured by flow cytometry. Referring now to FIG. 9, total SKL cell migration was higher for cells pulsed with dmPGE2. Data are the Mean±SEM percent migration for 3 experiments. ^†P<0.05 for dmPGE2 treated cells compared to cells treated with vehicle.

| SMILES | migration of human CD34+ cells to SDF-1α (UCB CD34+ cells) | increase in intracellular Survivin, CD34+ UCB cells [1] [fold] | total SKL cell migration to rmSDF-1α (SKL cells) |
| --- | --- | --- | --- |
| CCCCC[C@H](O)/C=C/[C@H]1[C@H](O)CC(=O)[C@@H]1C/C=C\CCCC(=O)O [PGE2, Prostaglandin E2] | Increases Migration |  |  |
| CCCCC(C)(C)[C@H](O)/C=C/[C@H]1[C@H](O)CC(=O)[C@@H]1C/C=C\CCCC(=O)O [dmPGE2, 16,16-dimethyl prostaglandin E2] |  | 2.4 | higher |
